Measured values taken from ChEMBL document CHEMBL3885881, “DrugMatrix”.

Species: Rattus norvegicus
Assay: DrugMatrix - Regimen: Daily Repeat
Type: toxicity, organism-based, Sprague-Dawley
Parameters: regimen Daily Repeat, gender Male, age 6-8 weeks
Details: in vivo, po, route oral GAVAGE, […]; for ABSOLUTE BASOPHIL / BASOPHIL / ABSOLUTE EOSINOPHIL / ABSOLUTE LYMPHOCYTE / ABSOLUTE MONOCYTE / ABSOLUTE SEGMENTED NEUTROPHIL / EOSINOPHIL / ERYTHROCYTE COUNT / HEMATOCRIT / HEMOGLOBIN / LEUKOCYTE COUNT / LYMPHOCYTE / MEAN CORPUSCULAR HEMOGLOBIN / MEAN CORPUSCULAR HEMOGLOBIN CONCENTRATION / MEAN CORPUSCULAR VOLUME / MONOCYTE / NEUTROPHIL / NUCLEATED RED BLOOD CELLS / PLATELET COUNT: tissue Blood; for ALANINE AMINOTRANSFERASE / ALBUMIN / ALKALINE PHOSPHATASE / ASPARTATE AMINOTRANSFERASE / BLOOD UREA NITROGEN / CARBON DIOXIDE / CHLORIDE / CHOLESTEROL / CREATINE PHOSPHOKINASE / CREATININE / GLUCOSE / LACTATE DEHYDROGENASE / LIPASE / PHOSPHORUS / SODIUM / TOTAL BILIRUBIN / TOTAL PROTEIN / URIC ACID: tissue Plasma
[1] = 0 mg/kg, 72 h, dose level Control, time 3 day
[2] = 0 mg/kg, 120 h, dose level Control, time 5 day
[3] = 12 mg/kg, 72 h, dose level Low, time 3 day
[4] = 12 mg/kg, 120 h, dose level Low, time 5 day
[5] = 24 mg/kg, 72 h, dose level M1, time 3 day
[6] = 24 mg/kg, 120 h, dose level M1, time 5 day
[7] = 47 mg/kg, 72 h, dose level High, time 3 day
[8] = 47 mg/kg, 120 h, dose level High, time 5 day

Nc1nc2nc[nH]c2c(=S)[nH]1 [THIOGUANINE]
ABSOLUTE BASOPHIL [1]: 0 CELLS/uL
BASOPHIL [1]: 0%
ABSOLUTE BASOPHIL [2]: 0 CELLS/uL
BASOPHIL [2]: 0%
ABSOLUTE BASOPHIL [3]: 0 CELLS/uL
ABSOLUTE EOSINOPHIL [3]: 0 CELLS/uL
ABSOLUTE LYMPHOCYTE [3]: 1995.33 CELLS/uL
ABSOLUTE MONOCYTE [3]: 24.33 CELLS/uL
ABSOLUTE SEGMENTED NEUTROPHIL [3]: 1147 CELLS/uL
BASOPHIL [3]: 0%
EOSINOPHIL [3]: 0%
ERYTHROCYTE COUNT [3]: 5.75 x10E6/uL
HEMATOCRIT [3]: 36.93%
HEMOGLOBIN [3]: 14.27 G/DL
LEUKOCYTE COUNT [3]: 3.17 x10E3/uL
LYMPHOCYTE [3]: 50.67%
MEAN CORPUSCULAR HEMOGLOBIN [3]: 24.87 pg
MEAN CORPUSCULAR HEMOGLOBIN CONCENTRATION [3]: 38.6 G/DL
MEAN CORPUSCULAR VOLUME [3]: 64.37 fL
MONOCYTE [3]: 0.67%
NEUTROPHIL [3]: 48.67%
NUCLEATED RED BLOOD CELLS [3]: 0 /100WBC
PLATELET COUNT [3]: 1202 x10E3/uL
ALANINE AMINOTRANSFERASE [3]: 56.33 u/L
ALBUMIN [3]: 4.67 G/DL
ALKALINE PHOSPHATASE [3]: 631.67 u/L
ASPARTATE AMINOTRANSFERASE [3]: 116 u/L
BLOOD UREA NITROGEN [3]: 14.67 mg/dL
CARBON DIOXIDE [3]: 23 mmol/L
CHLORIDE [3]: 98.67 MEQ/L
CHOLESTEROL [3]: 58 mg/dL
CREATINE PHOSPHOKINASE [3]: 539.33 u/L
CREATININE [3]: 0.12 mg/dL
GLUCOSE [3]: 318 mg/dL
LACTATE DEHYDROGENASE [3]: 172 u/L
LIPASE [3]: 11.33 u/L
PHOSPHORUS [3]: 9.8 mg/dL
SODIUM [3]: 141.63 MEQ/L
TOTAL BILIRUBIN [3]: 0.17 mg/dL
TOTAL PROTEIN [3]: 6.73 G/DL
URIC ACID [3]: 1.43 mg/dL
ABSOLUTE BASOPHIL [4]: 0 CELLS/uL
ABSOLUTE EOSINOPHIL [4]: 52 CELLS/uL
ABSOLUTE LYMPHOCYTE [4]: 778 CELLS/uL
ABSOLUTE MONOCYTE [4]: 212 CELLS/uL
ABSOLUTE SEGMENTED NEUTROPHIL [4]: 8758 CELLS/uL
BASOPHIL [4]: 0%
EOSINOPHIL [4]: 0.67%
ERYTHROCYTE COUNT [4]: 4.29 x10E6/uL
HEMATOCRIT [4]: 27.5%
HEMOGLOBIN [4]: 11 G/DL
LEUKOCYTE COUNT [4]: 9.8 x10E3/uL
LYMPHOCYTE [4]: 8.33%
MEAN CORPUSCULAR HEMOGLOBIN [4]: 25.97 pg
MEAN CORPUSCULAR HEMOGLOBIN CONCENTRATION [4]: 40.5 G/DL
MEAN CORPUSCULAR VOLUME [4]: 64.23 fL
MONOCYTE [4]: 2%
NEUTROPHIL [4]: 89%
NUCLEATED RED BLOOD CELLS [4]: 0 /100WBC
PLATELET COUNT [4]: 1171.33 x10E3/uL
ALANINE AMINOTRANSFERASE [4]: 335.67 u/L
ALBUMIN [4]: 4.13 G/DL
ALKALINE PHOSPHATASE [4]: 261.67 u/L
ASPARTATE AMINOTRANSFERASE [4]: 551.67 u/L
BLOOD UREA NITROGEN [4]: 16.67 mg/dL
CARBON DIOXIDE [4]: 17.67 mmol/L
CHLORIDE [4]: 101 MEQ/L
CHOLESTEROL [4]: 60.33 mg/dL
CREATINE PHOSPHOKINASE [4]: 1296 u/L
CREATININE [4]: 0.11 mg/dL
GLUCOSE [4]: 204.67 mg/dL
LACTATE DEHYDROGENASE [4]: 625 u/L
LIPASE [4]: 9.67 u/L
PHOSPHORUS [4]: 13.37 mg/dL
SODIUM [4]: 141.53 MEQ/L
TOTAL BILIRUBIN [4]: 0.23 mg/dL
TOTAL PROTEIN [4]: 6.1 G/DL
URIC ACID [4]: 2.83 mg/dL
ABSOLUTE BASOPHIL [5]: 0 CELLS/uL
ABSOLUTE EOSINOPHIL [5]: 0 CELLS/uL
ABSOLUTE MONOCYTE [5]: 0 CELLS/uL
BASOPHIL [5]: 0%
EOSINOPHIL [5]: 0%
MONOCYTE [5]: 0%
ABSOLUTE BASOPHIL [6]: 0 CELLS/uL
ABSOLUTE EOSINOPHIL [6]: 46.33 CELLS/uL
ABSOLUTE LYMPHOCYTE [6]: 7006.33 CELLS/uL
ABSOLUTE MONOCYTE [6]: 30 CELLS/uL
ABSOLUTE SEGMENTED NEUTROPHIL [6]: 550.67 CELLS/uL
BASOPHIL [6]: 0%
EOSINOPHIL [6]: 0.67%
ERYTHROCYTE COUNT [6]: 5.49 x10E6/uL
HEMATOCRIT [6]: 33.33%
HEMOGLOBIN [6]: 13.27 G/DL
LEUKOCYTE COUNT [6]: 7.63 x10E3/uL
LYMPHOCYTE [6]: 91.67%
MEAN CORPUSCULAR HEMOGLOBIN [6]: 24.17 pg
MEAN CORPUSCULAR HEMOGLOBIN CONCENTRATION [6]: 39.8 G/DL
MEAN CORPUSCULAR VOLUME [6]: 60.83 fL
MONOCYTE [6]: 0.33%
NEUTROPHIL [6]: 7.33%
NUCLEATED RED BLOOD CELLS [6]: 0 /100WBC
PLATELET COUNT [6]: 1721.33 x10E3/uL
ALANINE AMINOTRANSFERASE [6]: 38.67 u/L
ALBUMIN [6]: 4.13 G/DL
ALKALINE PHOSPHATASE [6]: 266.67 u/L
ASPARTATE AMINOTRANSFERASE [6]: 89.33 u/L
BLOOD UREA NITROGEN [6]: 11 mg/dL
CARBON DIOXIDE [6]: 25 mmol/L
CHLORIDE [6]: 104.67 MEQ/L
CHOLESTEROL [6]: 66 mg/dL
CREATINE PHOSPHOKINASE [6]: 417.33 u/L
CREATININE [6]: 0.23 mg/dL
GLUCOSE [6]: 127.67 mg/dL
LACTATE DEHYDROGENASE [6]: 349 u/L
LIPASE [6]: 9.67 u/L
PHOSPHORUS [6]: 10.33 mg/dL
SODIUM [6]: 151.33 MEQ/L
TOTAL BILIRUBIN [6]: 0.33 mg/dL
TOTAL PROTEIN [6]: 5.97 G/DL
URIC ACID [6]: 1.17 mg/dL
ABSOLUTE BASOPHIL [7]: 0 CELLS/uL
ABSOLUTE EOSINOPHIL [7]: 53.33 CELLS/uL
ABSOLUTE LYMPHOCYTE [7]: 4257 CELLS/uL
ABSOLUTE MONOCYTE [7]: 26.67 CELLS/uL
ABSOLUTE SEGMENTED NEUTROPHIL [7]: 4229.67 CELLS/uL
BASOPHIL [7]: 0%
EOSINOPHIL [7]: 0.67%
ERYTHROCYTE COUNT [7]: 7.05 x10E6/uL
HEMATOCRIT [7]: 43.87%
HEMOGLOBIN [7]: 17.33 G/DL
LEUKOCYTE COUNT [7]: 8.57 x10E3/uL
LYMPHOCYTE [7]: 50%
MEAN CORPUSCULAR HEMOGLOBIN [7]: 24.57 pg
MEAN CORPUSCULAR HEMOGLOBIN CONCENTRATION [7]: 39.5 G/DL
MEAN CORPUSCULAR VOLUME [7]: 62.23 fL
MONOCYTE [7]: 0.33%
NEUTROPHIL [7]: 49%
NUCLEATED RED BLOOD CELLS [7]: 0 /100WBC
PLATELET COUNT [7]: 1024.33 x10E3/uL
ALANINE AMINOTRANSFERASE [7]: 35.67 u/L
ALBUMIN [7]: 3.03 G/DL
ALKALINE PHOSPHATASE [7]: 125 u/L
ASPARTATE AMINOTRANSFERASE [7]: 152.67 u/L
BLOOD UREA NITROGEN [7]: 21 mg/dL
CARBON DIOXIDE [7]: 16 mmol/L
CHLORIDE [7]: 97 MEQ/L
CHOLESTEROL [7]: 46.67 mg/dL
CREATINE PHOSPHOKINASE [7]: 4333 u/L
CREATININE [7]: 0.17 mg/dL
GLUCOSE [7]: 263.33 mg/dL
LACTATE DEHYDROGENASE [7]: 399 u/L
LIPASE [7]: 23.33 u/L
PHOSPHORUS [7]: 14.77 mg/dL
SODIUM [7]: 139.73 MEQ/L
TOTAL BILIRUBIN [7]: 0.17 mg/dL
TOTAL PROTEIN [7]: 4.33 G/DL
URIC ACID [7]: 3.1 mg/dL
ABSOLUTE BASOPHIL [8]: 0 CELLS/uL
ABSOLUTE EOSINOPHIL [8]: 0 CELLS/uL
ABSOLUTE LYMPHOCYTE [8]: 1200 CELLS/uL
ABSOLUTE MONOCYTE [8]: 72 CELLS/uL
ABSOLUTE SEGMENTED NEUTROPHIL [8]: 1128 CELLS/uL
BASOPHIL [8]: 0%
EOSINOPHIL [8]: 0%
ERYTHROCYTE COUNT [8]: 6.48 x10E6/uL
HEMATOCRIT [8]: 41.1%
HEMOGLOBIN [8]: 15.9 G/DL
LEUKOCYTE COUNT [8]: 2.4 x10E3/uL
LYMPHOCYTE [8]: 50%
MEAN CORPUSCULAR HEMOGLOBIN [8]: 24.5 pg
MEAN CORPUSCULAR HEMOGLOBIN CONCENTRATION [8]: 38.7 G/DL
MEAN CORPUSCULAR VOLUME [8]: 63.5 fL
MONOCYTE [8]: 3%
NEUTROPHIL [8]: 47%
NUCLEATED RED BLOOD CELLS [8]: 0 /100WBC
PLATELET COUNT [8]: 877 x10E3/uL
ALANINE AMINOTRANSFERASE [8]: 127 u/L
ALBUMIN [8]: 3.5 G/DL
ALKALINE PHOSPHATASE [8]: 205 u/L
ASPARTATE AMINOTRANSFERASE [8]: 290 u/L
BLOOD UREA NITROGEN [8]: 35 mg/dL
CARBON DIOXIDE [8]: 25 mmol/L
CHLORIDE [8]: 100 MEQ/L
CHOLESTEROL [8]: 56 mg/dL
CREATINE PHOSPHOKINASE [8]: 284 u/L
CREATININE [8]: 0.1 mg/dL
GLUCOSE [8]: 211 mg/dL
LACTATE DEHYDROGENASE [8]: 156 u/L
LIPASE [8]: 6 u/L
PHOSPHORUS [8]: 9.3 mg/dL
SODIUM [8]: 141.5 MEQ/L
TOTAL BILIRUBIN [8]: 0.2 mg/dL
TOTAL PROTEIN [8]: 6.1 G/DL
URIC ACID [8]: 1.5 mg/dL
